Laboratory results as given in patent US5624959A, “Naphthyloxyacetic acid” (Ono Pharmaceutical Co., Ltd., priority 1993, dated 1997).

Molecular target: T1, prostanoide receptor subtype (mouse EP3a) (Mus musculus, UniProt P30557)
T1 construct: expressed in transfected cells
T1 sequence (P30557 1-365): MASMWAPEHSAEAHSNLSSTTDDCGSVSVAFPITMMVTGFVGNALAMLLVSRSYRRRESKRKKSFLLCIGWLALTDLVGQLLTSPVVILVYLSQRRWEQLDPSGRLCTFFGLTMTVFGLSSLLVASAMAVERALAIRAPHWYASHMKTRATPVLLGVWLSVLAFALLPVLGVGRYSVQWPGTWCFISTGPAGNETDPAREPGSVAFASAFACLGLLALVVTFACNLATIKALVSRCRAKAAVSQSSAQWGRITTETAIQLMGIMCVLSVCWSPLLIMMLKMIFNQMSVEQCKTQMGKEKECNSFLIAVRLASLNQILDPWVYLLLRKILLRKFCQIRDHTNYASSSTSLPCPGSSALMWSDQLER
Experiment: Binding assay using expression cell of prostanoide receptor subtype ([3H]PGE2 competition, membrane fraction)
Details: mouse EP3a membrane fraction (0.5 mg/ml); [3H]-PGE2 2.5 nM; pH 6.0; 1 hour at room temperature; Ki=IC50/(1+([c]/Kd)); read-out: Ki (dissociation constant)
Protocol: (i) Binding assay using expression cell of prostanoide receptor subtype
The preparation of membrane fraction was carried out according to the method of Sugimoto et al [J. Biol. Chem. 267, 6463-6466(1992)], using prostanoide receptor subtype (mouse EP3a).
The standard assay mixture containing a membrane fraction (0.5 mg/ml), [^3 H]PGE2 in a final volume of […] was incubated for 1 hour at room temperature. The reaction was terminated by the addition of 3 ml of ice-cooled buffer. The mixture was rapidly filtered through a Whatman GF/B glass filter. The radioactivity associated with the filter was measured in ACS II (Amarsham) by liquid scintillation counting.
Kd and Bmax values were determined from Scatchard plots [Ann. N.Y. Acad. Sci., 51,660(1949)]. Non-specific binding was calculated as the bond in the presence of an excess (2.5 mM) of unlabeled PGE2. In the experiment for competition of specific [^3 H]-PGE2 binding by the compounds of the present invention, [^3 H]-PGE2 was added at a concentration of 2.5 nM and the compounds of the present invention were at a concentration of 1 mM.
The following buffer was used in all reactions. Buffer: 10 mM potassium phosphate (pH 6.0), 1 mM EDTA, 10 mM MgCl2, 0.1 M NaCl
The dissociation constant (Ki) of each compound was calculated by the following equation.

SMILES	Ki [nM]
O=C(O)COc1cccc2c1CCC=C2CCNS(=O)(=O)/C=C/c1ccccc1 [Example 3(aa), 5-[2-[(2-phenylvinyl)sulfonylamino]ethyl]-7,8-dihydronaphthyloxyacetic acid]	7.9
O=C(O)COc1cccc2c3c(ccc12)CCC(NS(=O)(=O)/C=C/c1ccccc1)C3 (stereo not shown) [Example 3(ff), 6-[(2-phenylvinyl)sulfonylamino]-5,6,7,8-tetrahydrophenanthrene-1-yl-oxyacetic acid]	2.5
O=C(O)COc1cccc2c(CCNS(=O)(=O)/C=C/c3ccccc3)cccc12 [Example 3(g)]	7
O=C(O)COc1cccc2cc(CCNS(=O)(=O)/C=C/c3ccccc3)ccc12 [Example 3(h), 6-[2-[(2-phenylvinyl)sulfonylamino]ethyl]naphthyloxyacetic acid]	37
O=C(O)COc1cccc2c(NS(=O)(=O)C=C(c3ccccc3)c3ccccc3)cccc12 [Example 3(i), 5-[(2,2-diphenylvinyl)sulfonylamino]naphthyloxyacetic acid]	37
O=C(O)COc1cccc2c1CCCC2NS(=O)(=O)C=C(c1ccccc1)c1ccccc1 (stereo not shown) [Example 3(p), 5-[(2,2-diphenylvinyl)sulfonylamino]-5,6,7,8-tetrahydronaphthyloxyacetic acid]	36
O=C(O)COc1cccc2c1CCCC2NS(=O)(=O)c1ccc2ccccc2c1 (stereo not shown) [Example 3(q), 5-(naphth-2-yl-sulfonylamino)-5,6,7,8-tetrahydronaphthyloxyacetic acid]	320
O=C(O)COc1cccc2c(NS(=O)(=O)CCc3ccccc3)cccc12 [Example 3(v), 5-[(2-phenylethyl)sulfonylamino]naphthyloxyacetic acid]	17
O=C(O)COc1cccc2c(CCNS(=O)(=O)CCc3ccccc3)cccc12 [Example 3(w), 5-[2-[(2-phenylethyl)sulfonylamino]ethyl]naphthyloxyacetic acid]	28
O=C(O)COc1cccc2c(CCS(=O)(=O)NCC(c3ccccc3)c3ccccc3)cccc12 [Example 6(f)]	7.5
